Measurements: PubChem BioAssay AID260 (DTP/NCI, 2004)
Values joined by “and” are separate entries in the source; they are usually repeats but may differ in a detail not shown here. Equal values may be shown once. Toxic doses and inconclusive results are not listed.

Test system: CD2F1 mice, intracerebral L1210 leukemia, survival T/C
Experiment: NCI In Vivo Anticancer Drug Screen. Data for tumor model L1210 Leukemia (intracerebral) in CD2F1 (CDF1) mice
Conditions: higher = longer survival
Description: The antitumor activity of compounds was measured in mice bearing transplantable tumors. Survival or tumor size were measured and the results are expressed as the measurement made in the treated group (T) divided by the measurement made in the vehicle treated control group (C). The tumor model used in this assay is L1210 Leukemia (intracerebral) in CD2F1 (CDF1) mice

[1] = endpoint: median survival time, dose: 40.0 mg/kg/injection, schedule: Q01DX001 (ip), vehicle: saline
[2] = endpoint: median survival time, dose: 80.0 mg/kg/injection, schedule: Q01DX001 (ip), vehicle: saline
[3] = endpoint: median survival time, dose: 160.0 mg/kg/injection, schedule: Q01DX001 (ip), vehicle: saline
[4] = endpoint: median survival time, dose: 8.0 mg/kg/injection, schedule: Q01DX005 (ip), vehicle: saline + alcohol
[5] = endpoint: median survival time, dose: 16.0 mg/kg/injection, schedule: Q01DX005 (ip), vehicle: saline + alcohol
[6] = endpoint: median survival time, dose: 32.0 mg/kg/injection, schedule: Q01DX005 (ip), vehicle: saline + alcohol
[7] = endpoint: median survival time, dose: 64.0 mg/kg/injection, schedule: Q01DX005 (ip), vehicle: saline + alcohol
[8] = endpoint: median survival time, dose: 128.0 mg/kg/injection, schedule: Q01DX005 (ip), vehicle: saline + alcohol
[9] = endpoint: mean survival time, dose: 25.0 mg/kg/injection, schedule: Q01DX009 (ip), vehicle: Klucel (hydroxypropylcellulose) (HPC)
[10] = endpoint: mean survival time, dose: 50.0 mg/kg/injection, schedule: Q01DX009 (ip), vehicle: Klucel (hydroxypropylcellulose) (HPC)
[11] = endpoint: median survival time, dose: 16.0 mg/kg/injection, schedule: Q01DX005 (ip), vehicle: saline with Tween-80
[12] = endpoint: median survival time, dose: 32.0 mg/kg/injection, schedule: Q01DX005 (ip), vehicle: saline with Tween-80

O=P1(N(CCCl)CCCl)NC(OO)CCO1 (configuration not stated)
T/C [1]: 100 % of control | T/C [2]: 102 % of control | T/C [3]: 103 % of control

O=C1c2c(O)ccc(O)c2C(=O)c2c(NCCNCCO)ccc(NCCNCCO)c21
T/C (endpoint: median survival time, dose: 0.5 mg/kg/injection, schedule: Q01DX009 (ip), vehicle: saline with Tween-80): 122 % of control and 110 % of control | T/C (endpoint: median survival time, dose: 1.0 mg/kg/injection, schedule: Q01DX009 (ip), vehicle: saline with Tween-80): 120 % of control | T/C (endpoint: median survival time, dose: 2.0 mg/kg/injection, schedule: Q01DX009 (ip), vehicle: saline with Tween-80): 121 % of control | T/C (endpoint: median survival time, dose: 4.0 mg/kg/injection, schedule: Q01DX009 (ip), vehicle: saline with Tween-80): 105 % of control and 106 % of control

O=C(O)CC(NC(=O)CP(=O)(O)O)C(=O)O (configuration not stated)
T/C (endpoint: mean survival time, dose: 200.0 mg/kg/injection, schedule: Q01DX009 (ip), vehicle: saline): 100 % of control | T/C (endpoint: mean survival time, dose: 225.0 mg/kg/injection, schedule: Q01DX009 (ip), vehicle: saline): 108 % of control | T/C (endpoint: mean survival time, dose: 250.0 mg/kg/injection, schedule: Q01DX009 (ip), vehicle: saline): 101 % of control

CN(C)N=Nc1ccccc1Cl
T/C [4]: 98 % of control | T/C [5]: 106 % of control | T/C [6]: 102 % of control | T/C [7]: 102 % of control | T/C [8]: 105 % of control

CN(C)N=Nc1ccccc1
T/C (endpoint: mean survival time, dose: 6.25 mg/kg/injection, schedule: Q01DX009 (ip), vehicle: Klucel (hydroxypropylcellulose) (HPC)): 101 % of control and 104 % of control and 112 % of control | T/C (endpoint: mean survival time, dose: 12.5 mg/kg/injection, schedule: Q01DX009 (ip), vehicle: Klucel (hydroxypropylcellulose) (HPC)): 109 % of control and 112 % of control and 113 % of control | T/C [9]: 118 % of control | T/C [10]: 120 % of control and 107 % of control and 115 % of control

O=C1C=C(N2CC2)C(=O)C=C1N1CC1
T/C (endpoint: mean survival time, dose: 0.12 mg/kg/injection, schedule: Q01DX009 (ip), vehicle: saline): 102 % of control and 103 % of control and 104 % of control | T/C (endpoint: mean survival time, dose: 0.25 mg/kg/injection, schedule: Q01DX009 (ip), vehicle: saline): 102 % of control and 103 % of control and 108 % of control | T/C (endpoint: mean survival time, dose: 0.5 mg/kg/injection, schedule: Q01DX009 (ip), vehicle: saline): 103 % of control and 106 % of control and 108 % of control | T/C (endpoint: mean survival time, dose: 1.0 mg/kg/injection, schedule: Q01DX009 (ip), vehicle: saline): 89 % of control and 90 % of control and 98 % of control

Nc1nc(F)nc2c1ncn2C1OC(COP(=O)(O)O)C(O)C1O (configuration not stated)
T/C (endpoint: median survival time, dose: 60.0 mg/kg/injection, schedule: Q01DX009 (ip), vehicle: saline): 109 % of control | T/C (endpoint: median survival time, dose: 90.0 mg/kg/injection, schedule: Q01DX009 (ip), vehicle: saline): 106 % of control | T/C (endpoint: median survival time, dose: 200.0 mg/kg/injection, schedule: Q01DX009 (ip), vehicle: saline): 116 % of control

CCCCCCCCN(C)/N=N/c1nc[nH]c1C(N)=O
T/C [11]: 119 % of control | T/C [12]: 121 % of control | T/C (endpoint: median survival time, dose: 64.0 mg/kg/injection, schedule: Q01DX005 (ip), vehicle: saline with Tween-80): 124 % of control | T/C (endpoint: median survival time, dose: 128.0 mg/kg/injection, schedule: Q01DX005 (ip), vehicle: saline with Tween-80): 118 % of control | T/C (endpoint: median survival time, dose: 256.0 mg/kg/injection, schedule: Q01DX005 (ip), vehicle: saline with Tween-80): 89 % of control

CCC(=O)O[C@H]1CC[C@H]2[C@@H]3CCC4=CC(=O)CC[C@]4(C)[C@H]3CC[C@]12C
T/C (endpoint: median survival time, dose: 8.0 mg/kg/injection, schedule: Q01DX009 (ip), vehicle: saline with Tween-80): 121 % of control | T/C (endpoint: median survival time, dose: 8.0 mg/kg/injection, schedule: Q01DX009 (ip), vehicle: saline): 109 % of control | T/C (endpoint: median survival time, dose: 16.0 mg/kg/injection, schedule: Q01DX009 (ip), vehicle: saline with Tween-80): 110 % of control | T/C (endpoint: median survival time, dose: 16.0 mg/kg/injection, schedule: Q01DX009 (ip), vehicle: saline): 102 % of control | T/C (endpoint: median survival time, dose: 32.0 mg/kg/injection, schedule: Q01DX009 (ip), vehicle: saline with Tween-80): 118 % of control | T/C (endpoint: median survival time, dose: 32.0 mg/kg/injection, schedule: Q01DX009 (ip), vehicle: saline): 104 % of control | T/C (endpoint: median survival time, dose: 64.0 mg/kg/injection, schedule: Q01DX009 (ip), vehicle: saline with Tween-80): 118 % of control | T/C (endpoint: median survival time, dose: 128.0 mg/kg/injection, schedule: Q01DX009 (ip), vehicle: saline with Tween-80): 110 % of control | T/C (endpoint: median survival time, dose: 128.0 mg/kg/injection, schedule: Q01DX009 (ip), vehicle: saline): 224 % of control | T/C (endpoint: median survival time, dose: 256.0 mg/kg/injection, schedule: Q01DX009 (ip), vehicle: saline with Tween-80): 101 % of control | T/C (endpoint: median survival time, dose: 256.0 mg/kg/injection, schedule: Q01DX009 (ip), vehicle: saline): 120 % of control | T/C (endpoint: median survival time, dose: 512.0 mg/kg/injection, schedule: Q01DX009 (ip), vehicle: saline with Tween-80): 105 % of control | T/C (endpoint: median survival time, dose: 512.0 mg/kg/injection, schedule: Q01DX009 (ip), vehicle: saline): 116 % of control

COC(=O)c1ccc(N=NN(C)C)cc1
T/C [4]: 104 % of control | T/C [5]: 106 % of control | T/C [6]: 113 % of control | T/C [7]: 120 % of control | T/C [8]: 112 % of control

C=CCN(C)N=Nc1ccc(C(N)=O)cc1
T/C [9]: 98 % of control | T/C [10]: 108 % of control | T/C (endpoint: mean survival time, dose: 100.0 mg/kg/injection, schedule: Q01DX009 (ip), vehicle: Klucel (hydroxypropylcellulose) (HPC)): 118 % of control | T/C (endpoint: mean survival time, dose: 200.0 mg/kg/injection, schedule: Q01DX009 (ip), vehicle: Klucel (hydroxypropylcellulose) (HPC)): 118 % of control

COC(COC(=O)N1CCN(C=O)CC1)C1=C(N2CC2)C(=O)C(C)=C(N2CC2)C1=O (configuration not stated)
T/C (endpoint: median survival time, dose: 0.75 mg/kg/injection, schedule: Q01DX009 (ip), vehicle: saline): 115 % of control | T/C (endpoint: median survival time, dose: 1.5 mg/kg/injection, schedule: Q01DX009 (ip), vehicle: saline): 105 % of control | T/C (endpoint: median survival time, dose: 6.0 mg/kg/injection, schedule: Q01DX009 (ip), vehicle: saline): 160 % of control

CC(=O)c1ccccc1N=NN(C)C
T/C (endpoint: mean survival time, dose: 10.0 mg/kg/injection, schedule: Q01DX007 (ip), vehicle: DMSO): 91 % of control | T/C (endpoint: mean survival time, dose: 20.0 mg/kg/injection, schedule: Q01DX007 (ip), vehicle: DMSO): 91 % of control | T/C (endpoint: mean survival time, dose: 40.0 mg/kg/injection, schedule: Q01DX007 (ip), vehicle: DMSO): 93 % of control | T/C (endpoint: mean survival time, dose: 80.0 mg/kg/injection, schedule: Q01DX007 (ip), vehicle: DMSO): 103 % of control | T/C (endpoint: mean survival time, dose: 120.0 mg/kg/injection, schedule: Q01DX007 (ip), vehicle: DMSO): 100 % of control

C1CN(P2(N3CC3)=NP(N3CC3)(N3CC3)=NP(N3CC3)(N3CC3)=N2)CCO1 (configuration not stated)
T/C (endpoint: median survival time, dose: 20.0 mg/kg/injection, schedule: Q01DX001 (ip), vehicle: saline): 92 % of control | T/C [1]: 95 % of control | T/C [2]: 101 % of control

COc1ccc(C(=O)/C(Br)=C/C(=O)O)cc1
T/C (endpoint: median survival time, dose: 10.0 mg/kg/injection, schedule: Q01DX005 (ip), vehicle: saline): 98 % of control | T/C (endpoint: median survival time, dose: 20.0 mg/kg/injection, schedule: Q01DX005 (ip), vehicle: saline): 100 % of control | T/C (endpoint: median survival time, dose: 40.0 mg/kg/injection, schedule: Q01DX005 (ip), vehicle: saline): 105 % of control

CS(=O)(=O)CS(=O)(=O)OCCCl
T/C (endpoint: median survival time, dose: 6.25 mg/kg/injection, schedule: Q01DX009 (ip), vehicle: saline): 104 % of control | T/C (endpoint: median survival time, dose: 12.5 mg/kg/injection, schedule: Q01DX009 (ip), vehicle: saline): 112 % of control | T/C (endpoint: median survival time, dose: 50.0 mg/kg/injection, schedule: Q01DX009 (ip), vehicle: saline): 209 % of control

COC(=O)C(Cc1ccc(N(CCCl)CCCl)cc1)N=NNc1nc[nH]c1C(N)=O (configuration not stated)
T/C (endpoint: median survival time, dose: 8.0 mg/kg/injection, schedule: Q01DX005 (ip), vehicle: saline with Tween-80): 95 % of control | T/C [11]: 115 % of control | T/C [12]: 95 % of control

CN(C)P1(=O)NCCCO1 (configuration not stated)
T/C [2]: 91 % of control | T/C [3]: 90 % of control | T/C (endpoint: median survival time, dose: 320.0 mg/kg/injection, schedule: Q01DX001 (ip), vehicle: saline): 92 % of control | T/C (endpoint: median survival time, dose: 640.0 mg/kg/injection, schedule: Q01DX001 (ip), vehicle: saline): 95 % of control | T/C (endpoint: median survival time, dose: 1280.0 mg/kg/injection, schedule: Q01DX001 (ip), vehicle: saline): 91 % of control

O=C1C(N2CC2)=C(N2CCCC(O)C2)C(=O)C(N2CC2)=C1N1CCCC(O)C1 (configuration not stated)
T/C (endpoint: mean survival time, dose: 2.0 mg/kg/injection, schedule: Q04DX003 (ip), vehicle: saline): 103 % of control and 110 % of control | T/C (endpoint: mean survival time, dose: 4.0 mg/kg/injection, schedule: Q04DX003 (ip), vehicle: saline): 121 % of control and 110 % of control | T/C (endpoint: mean survival time, dose: 6.0 mg/kg/injection, schedule: Q04DX003 (ip), vehicle: saline): 114 % of control | T/C (endpoint: mean survival time, dose: 8.0 mg/kg/injection, schedule: Q04DX003 (ip), vehicle: saline): 114 % of control
